Data taken from patent publication US6911470B1, “Polyoxometalate compounds as antiviral agents” (priority 1988, dated 2005).

Key:
SIV = experiment: Activity against SIV; assay type: cell-based, simian immunodeficiency virus; details: Table 2
[1] = system: Friend retrovirus, strain FV-PLS; experiment: Splenomegaly model in BALB/c mice infected with Friend virus; details: for % Effectiveness / Mean Spleen wt. (mg) ± SD: sacrifice day 16
Protocol: Tests were conducted in whole infected mice using one of the compounds to the present invention. The methodology of this test is the same as was used in Ruprecht et al, Nature 323, 467-469, except that Friend virus was used instead of Rauscher virus.
Comparison of Toxicity of Polyoxometalate Compounds Mice. Female BALB/c mice (3 to 4 weeks old), obtained from Charles River Laboratories (Raleigh, N.C.), were acclimatized in the animal facility for two weeks. They-were then inoculated (200 μl) into the peritoneal cavity with Friend retrovirus, strain FV-PLS. A virus inoculum [about 100 focus forming units (FFU)/mouse] was selected which caused a splenomegaly rate of 100% on day 16 after virus inoculation in untreated animals. The virus titer of the inoculum was determined by a UV/XC assay.
In vivo antiviral experiments. Mice were inoculated intraperitoneally with virus at noon and then randomized into ten animals per treatment group. Five hours after virus inoculation, the mice were treated intraperitoneally with the compounds. Treatment was continued daily for 6 or 10 days. On day 16 after virus inoculation, the animals were sacrificed by carbon dioxide inhalation and their spleens removed under aseptic conditions and weighed.

[2] = background statement; AZT in a clinical setting; cited from earlier work
[3] = Comparison of toxicity of polyoxometalate compounds in mice (mortality, haematology); assay type: in vivo; set-up: MCV (mean corpuscular volume): unit not given here; details: BID × 6, 60 mkd i.p.
From the text: Comparison of Toxicity of Polyoxometalate Compounds Mice.
In vivo antiviral experiments. […] Treatment was continued daily for 6 or 10 days.

Compound | EC50 (SIV) [nM] | % Mortality ([1]; 30 mkd IP QD × 10) [%] | % Effectiveness ([1]; 30 mkd IP QD × 10) [%] | Mean Spleen wt. (mg) ± SD ([1]; 30 mkd IP QD × 10) | % Mortality ([1]; 60 mkd IP QD × 10) [%] | % Effectiveness ([1]; 60 mkd IP QD × 10) [%] | Mean Spleen wt. (mg) ± SD ([1]; 60 mkd IP QD × 10) [mg] | adverse effect [2] | Hct (hematocrit) ([3]; bled on day 17) [%] | Hgb (hemaglobin) ([3]; bled on day 17) [g/dL] | MCH ([3]; bled on day 17) [pg] | MCHC (mean corpuscular hemoglobin concentration) ([3]; bled on day 17) [g/dL] | MCV (mean corpuscular volume) ([3]; bled on day 17) | PLT (platelates) (×1000) ([3]; bled on day 17) | RBC (×1000000) ([3]; bled on day 17) | RDW (width of red cells) ([3]; bled on day 17) [%] | WBC (×1000) ([3]; bled on day 17) | Mortality ([3]; dead/total)
Cc1cn([C@H]2C[C@H](N=[N+]=[N-])[C@@H](CO)O2)c(=O)[nH]c1=O [Formula 22, 3′-azido-3′-deoxythymidine, reference compound] | 2.88 | 0 | 38.4 | 1,249 ± 1,152 mg | 0 | 51.3 | 988 ± 836 | reversible bone marrow toxicity | – | – | – | – | – | – | – | – | – | –
(ArgH^+)m(H^+)4-mST, where m=1-4 [(ARGH^+)nH^+(4−n)ST] | – | – | – | – | – | – | – | – | 18.16 ± 6.02 | 7.08 ± 2.51 | 17.8 ± 1.6 | 38.62 ± 3.49 | 46.08 ± 0.45 | 325 ×1000 | 3.95 ± 1.31 ×1000000 | 36.68 ± 1.31 | 6.28 ± 2.19 ×1000 | 0/5
